“Also recorded” adds a separate entry of the source.
What was measured:
rodent bone marrow = details: ref ImmunoMet, 2018; cited from earlier work
Glioblastoma cells = system: Glioblastoma cells; parameters: method as in ImmunoMet, 2018; details: 15 µM IM156, 500 µM temozolomide, ref ImmunoMet, 2018; cited from earlier work
[1] = presence and absence of activated S9; ref ImmunoMet, 2018; cited from earlier work
[2] = system: GC lines including MKN-74; parameters: method as in ImmunoMet, 2018; details: Eleven GC lines including MKN-74; ref ImmunoMet, 2018; cited from earlier work
glioblastoma (GSC11) = system: glioblastoma (GSC11); parameters: method as in ImmunoMet, 2018; details: glioblastoma animal model, control group 47 days; ref ImmunoMet, 2018; cited from earlier work
A549 = system: A549; parameters: method as in ImmunoMet, 2018; details: in A549; ref ImmunoMet, 2018; read-out: OXPHOS inhibition IC50; cited from earlier work
advanced solid tumors = assay: Preliminary efficacy (RECIST 1.1 / RANO response, PFS); format: in vivo, human
From the text: A preliminary evaluation of efficacy was based on serial CT or magnetic resonance imaging (MRI). Response criteria were as defined by RECIST 1.1 or RANO. The following endpoints were to be assessed: overall response rate (ORR: complete response [CR] plus partial response [PR]), disease control rate (DCR: CR + PR + stable disease [SD]), DoR, and PFS.
The safety population was defined as all patients who received at least one dose of IM156. The PK population was not defined in the protocol but included all patients with sufficient PK data to perform adequate PK modeling. The efficacy population included all patients who underwent at least one tumor imaging assessment while receiving IM156. Safety was assessed using descriptive statistics (e.g., DLTs, AEs, laboratory tests, physical examination, 12-lead ECG). The incidence and number of events were reported for the DLTs observed in Cycle 1 per dose group. […] Two-sided 95% Confidence Intervals (CIs) were also provided. Adverse events and TRAEs were standardized with the System Organ Class and the Preferred Term using the Medical Dictionary for Regulatory Activities v23.0. In addition, TEAEs, serious adverse events (SAEs), TEAE severity, and TEAEs leading to withdrawal were presented by dose group. Efficacy data were to be presented by Waterfall and Swim Lane plots. Time to event endpoints (e.g., DoR, PFS) were determined using Kaplan–Meier estimations with the median value for each endpoint summarized.

[3] = major metabolic organs such as lung, liver, kidney; cited from earlier work
beagle dogs = details: ref ImmunoMet, 2018, cited from earlier work
[4] = Plasma pharmacokinetics of IM156 in patients
Description: PK samples were also obtained on Cycle 1 Day 15 immediately prior to dosing and 2 h after dosing.
③ Method and schedule for administration:
IM156 will be administered in a fasted state (at least 2 hours after
and 1 hour before eating and drinking except water) except at
the single dose stage (described below).
In the single dose stage, IM156 will be administered with a high-
fast of at least 10 hours, subjects should eat a high-fat meal in
20 minutes starting 30 minutes prior to administration of IM156
with 240 mL of water. No food will be eaten for at least 4 hours
after the administration of IM156. Water is allowed as desired
except for one hour before and after the administration of IM156.
Phase 1b: advanced solid tumor or lymphoma
IM156 will be administered at the RP2D and schedule determined during
Phase 1a. The population(s) and dose and schedule of IM156 will be
defined in a protocol amendment.
Methodology This study is a Phase 1 clinical study to determine the MTD and RP2D of
IM156 as a single agent and to explore its safety, tolerability, PK
characteristics, exploratory markers, and preliminary efficacy.
The Phase 1 clinical study consists of two parts, Phase 1a and Phase 1b.
The Phase 1a is conducted to determine the MTD of IM156 as a single
agent. In addition, the safety, tolerability, preliminary efficacy, PK
characteristics, and exploratory markers of IM156 are evaluated in
patients with advanced solid tumors or lymphoma who have failed in the
standard therapies. Approximately 8 cohorts are planned in Phase 1a; the
number of cohorts and the dose and schedule of IM156 to be
administered at each dose levels will be determined by Safety Committee.
The Phase 1b is conducted to confirm the safety and tolerability, to
explore the preliminary efficacy, and to evaluate the exploratory markers
at the RP2D of IM156 in patients with advanced solid tumor or lymphoma.
Pharmacokinetic Evaluation
Pharmacokinetic evaluation on IM156 will be carried out at each dose level in all the patients
enrolled in the Phase 1a and Phase 1b study. Pharmacokinetic evaluation will be performed on
Day 1 and 15 (Day 15 is only for the Phase 1a study) of the first cycle (Cycle 1), and Day 1 of the
second cycle (Cycle 2). Day 1 Cycle 2 will be Day 29. On Day 1 of Cycles 1 and 2, patients may
be hospitalized in the ward where 24-hour monitoring is possible, and blood and urine will be
collected before and after IM156 adminstration for PK evaluation. The drug concentration will be
evaluated whenever analyses of patient samples are feasible during the clinical study. In PK
evaluation, area under the concentration-time curve (AUC) over the time interval from 0
extrapolated to infinity (AUCinf), AUC up to the last measurable concentration (AUC0–last),
maximum plasma drug concentration (Cmax), minimum plasma drug concentration (Cmin), time
taken to reach the maximum concentration (Tmax), terminal phase half life (T1/2), apparent total
clearance of the drug from plasma after oral administration (CL/F), accumulation ratio at steady
state, cumurative amount of unchanged drug excreted into the urine (Ae), renal clearance (CLr),
and so on will be determined and other PK parameters can be added, if necessary.

tumor cells = system: tumor cells; parameters: method as in Immunomet – Data on File; details: at equal concentrations, ref Immunomet – Data on File, cited from earlier work
protein complex 1 = system: protein complex 1; parameters: method as in ImmunoMet, 2018; details: study protocol background; ref ImmunoMet, 2018; cited from earlier work
[5] = plasma, Cycle 1 Day 1, 100 mg oral, N = 3
[6] = plasma, Cycle 1 Day 1, 200 mg oral, N = 3
[7] = plasma, Cycle 1 Day 1, 400 mg oral, N = 3
[8] = plasma, Cycle 1 Day 1, 800 mg oral (both regimens combined), N = 6
[9] = plasma, Cycle 1 Day 1, 1200 mg oral (both regimens combined), N = 7
[10] = plasma, Day 27, cohort 1, 100 mg QOD, N = 2
[11] = plasma, Day 27, cohort 2, 200 mg QOD, N = 3
[12] = plasma, Day 27, cohort 3, 400 mg QOD, N = 3
[13] = plasma, Day 27, cohort 4, 800 mg QOD, N = 3
[14] = plasma, Day 27, cohort 5, 1200 mg QOD, N = 3
[15] = plasma, Day 27, cohort 6, 800 mg QD, N = 3
[16] = plasma, Day 27, cohort 7, 1200 mg QD, N = 2
[17] = plasma, Fed 1 (single dose with high-fat meal), 1200 mg oral, N = 3

For `NC(=Nc1ccc(OC(F)(F)F)cc1)N=C(N)N1CCCC1` [IM156], the “genotoxicity in in vivo micronucleus test” value (rodent bone marrow) is given as “not genotoxic”, the neurosphere size (Glioblastoma cells) is given as “decreased” and the “genotoxicity in two in vitro assays” value [1] is given as “not genotoxic”. The “sensitivity of GC lines to single agent” value [2] was “significant sensitivity”, the median survival time (glioblastoma (GSC11)) was 82 days and the IC50 (A549) was 9 µM. The “duration of prolonged SD / time on IM156” value (advanced solid tumors; 1 patient with gastric adenocarcinoma) was 169 days, the “duration of prolonged SD / time on IM156” value (advanced solid tumors; 1 patient with gastric neuroendocrine carcinoma) was 444 days and the “objective responses (CRs or PRs)” value (advanced solid tumors; 16 of 22 patients with response data) was “No objective responses; also recorded: No clinical responses”. The “median PFS” value (advanced solid tumors; Kaplan–Meier) was 54 days, the “median PFS, 95% CI” value (advanced solid tumors; Kaplan–Meier) was 47 to 71 days and the “disease control rate (DCR)” value (advanced solid tumors; N = 22) was 32%. For the same molecule, the “patients with confirmed SD” value (advanced solid tumors; N = 22) was 2 patients, the “patients with confirmed SD, percent” value (advanced solid tumors; N = 22) was 9% and the “patients with stable disease (SD) as best response” value (advanced solid tumors; N = 22) was 7 patients. For the same molecule, the “patients with stable disease (SD) as best response, percent” value (advanced solid tumors; N = 22) was 32%, the “tissue concentrations compared to plasma” value [3] was 30–80 fold and the tolerability (beagle dogs; beagle dogs, 20, 40, or 80 mg/kg/dose QOD oral gavage, 27 days) was “tolerated and did not result in morbidity/mortality”. For the same molecule, the “highest non-severely toxic dose (HNSTD)” value (beagle dogs; beagle dogs, oral QOD over 27 days (14 doses), highest dose tested) was at least 80 mg/kg, the “accumulation of plasma exposure at steady-state” value ([4]; 800 mg QD, Day 27 vs Day 1) was “modest accumulation” and the “maximum plasma exposure achieved” value ([4]; daily doses of 800 mg) was ~ 6 μM. The “dose proportionality of plasma exposure (AUC0-24, Cmax)” value ([4]; doses ≥ 200 mg) was “increased dose proportionally; also recorded: increased in a dose proportional manner; also recorded: dose proportionality”, the AUC0-24 [4, 5] was 482 ± 342 ng·h/mL and the Cmax [4, 5] was 38.7 ± 31.1 ng/mL. It also gave a Tmax [4, 5] of 6.67 ± 2.31 h, an AUC0-24 [4, 6] of 2980 ± 251 ng·h/mL and a Cmax [4, 6] of 189 ± 41.0 ng/mL. It also gave a Tmax [4, 6] of 4.67 ± 3.06 h, an AUC0-24 [4, 7] of 4380 ± 3010 ng·h/mL and a Cmax [4, 7] of 362 ± 131 ng/mL. The Tmax [4, 7] was 3.33 ± 1.15 h, the AUC0-24 [4, 8] was 7520 ± 3820 ng·h/mL and the Cmax [4, 8] was 829 ± 260 ng/mL. The Tmax [4, 8] was 2.25 ± 1.47 h, the AUC0-24 [4, 9] was 14,100 ± 6970 h*ng/mL and the Cmax [4, 9] was 1100 ± 616 ng/mL. For the same molecule, the Tmax [4, 9] was 5.00 ± 3.00 h, the “Plasma AUC0-24” value ([4]; plasma, Day 1, cohort 4 only, 800 mg QOD) was 7250 ± 3960 ng·h/mL and the “Plasma AUC0-24” value ([4]; plasma, Day 1, cohort 5 only, 1200 mg QOD) was 10600 ± 4820 ng·h/mL. For the same molecule, the “Plasma AUC0-24” value ([4]; plasma, Day 1, cohort 6 only, 800 mg QD) was 7790 ± 4530 ng·h/mL, the “Plasma AUC0-24” value ([4]; plasma, Day 1, cohort 7 only, 1200 mg QD) was 16800 ± 7720 ng·h/mL and the “mean Tmax values, range over doses” value ([4]; plasma, Day 27) was 1.2 to 4.0 h. It also gave an AUC0-24 [4, 10] of 1070 ± 330 ng·h/mL, an AUC0-48 [4, 10] of 1400 ± 383 ng·h/mL and an AUCINF [4, 10] of 1620 ± 473 ng·h/mL. The CL/F [4, 10] was 64.5 ± 18.8 L/h, the Cmax [4, 10] was 109 ± 54.8 ng/mL and the Tmax [4, 10] was 2.50 ± 2.12 h. For the same molecule, the Vz/F [4, 10] was 1580 ± 291 L, the t1/2 [4, 10] was 17.3 ± 1.91 h and the AUC0-24 [4, 11] was 4200 ± 1140 ng·h/mL. It also gave an AUC0-48 [4, 11] of 6010 ± 1810 ng·h/mL, an AUCINF [4, 11] of 6180 ± 2220 ng·h/mL and a CL/F [4, 11] of 34.6 ± 12.4 L/h. The Cmax [4, 11] was 272 ± 43.8 ng/mL, the Tmax [4, 11] was 4.00 ± 0.00 h and the Vz/F [4, 11] was 837 ± 266 L. The t1/2 [4, 11] was 16.9 ± 0.752 h, the AUC0-24 [4, 12] was 7630 ± 5410 ng·h/mL and the AUC0-48 [4, 12] was 10,900 ± 8770 h*ng/mL. The CL/F [4, 12] was 67.8 ± 28.3 L/h, the Cmax [4, 12] was 530 ± 324 ng/mL and the Tmax [4, 12] was 4.00 ± 0.00 h. The Vz/F [4, 12] was 1160 ± 256 L, the t1/2 [4, 12] was 12.4 ± 2.56 h and the AUC0-24 [4, 13] was 12,900 ± 9470 h*ng/mL. For the same molecule, the AUC0-48 [4, 13] was 18,200 ± 14,700 h*ng/mL, the AUCINF [4, 13] was 11,200 ± 5740 h*ng/mL and the CL/F [4, 13] was 82.4 ± 42.3 L/h. For the same molecule, the Cmax [4, 13] was 949 ± 408 ng/mL, the Tmax [4, 13] was 1.17 ± 0.764 h and the Vz/F [4, 13] was 1650 ± 413 L. For the same molecule, the t1/2 [4, 13] was 14.9 ± 4.20 h, the AUC0-24 [4, 14] was 21,800 ± 3680 h*ng/mL and the AUC0-48 [4, 14] was 29,800 ± 4700 h*ng/mL. The AUCINF [4, 14] was 33,100 ± 6120 h*ng/mL, the CL/F [4, 14] was 36.9 ± 6.83 L/h and the Cmax [4, 14] was 1580 ± 75.3 ng/mL. For the same molecule, the Tmax [4, 14] was 3.33 ± 1.15 h, the Vz/F [4, 14] was 863 ± 312 L and the t1/2 [4, 14] was 15.9 ± 2.90 h. The AUC0-24 [4, 15] was 33,600 ± 9780 h*ng/mL, the Cmax [4, 15] was 1870 ± 485 ng/mL and the Tmax [4, 15] was 4.00 ± 0.00 h. For the same molecule, the AUC0-24 [4, 16] was 36,300 ± 7550 h*ng/mL, the Cmax [4, 16] was 1980 ± 94.8 ng/mL and the Tmax [4, 16] was 4.00 ± 0.00 h. The AUC0-24 [4, 17] was 17,600 ± 12,800 h*ng/mL, the Cmax [4, 17] was 1220 ± 910 ng/mL and the Tmax [4, 17] was 6.83 ± 5.84 h. For the same molecule, the “mean plasma half-life (t1/2) values, range” value ([4]; plasma, post dose administration) was 12—17 h, the “reduction of cellular ATP production versus phenformin” value (tumor cells; without increase in ECAR) was “more potent” and the “decrease of oxygen consumption rate (OCR) of tumor cells compared to phenformin and metformin” value (tumor cells) was “more potent”. The “potency as protein complex 1 inhibitor relative to metformin” value (protein complex 1) was ~ 100 times.
